Data: patent US20120039957A1 (ACURA PHARMACEUTICALS, INC., priority 2010, published 2012)

Legend:
[1] = for mean time to peak disliking / mean peak disliking effect (Emin), VAS: 480 mg oral tablet, after high-fat breakfast; for mean time to peak disliking: high responders; for mean peak disliking effect (Emin), VAS: high responders (six subjects)
Description: A total of 49 subjects were enrolled. […] As identified in the randomization schedule for each subject, subjects took each dose of study drug immediately following a standardized high-fat breakfast.
During the study, each subject completed a 100 point Visual Analog Scale (VAS) “Like/Dislike” Rating Scale at dosing and for up to 6 hours post-dosing where subjects were asked “Do you like or dislike the drug effect you are feeling now?”

[2] = at pH 4.8; cited from earlier work
[3] = intestinal pH reduced from pH 8 to pH 5; cited from earlier work
[4] = in the presence of food, VAS over 6 hours

Structure (SMILES)	mean time to peak disliking [1] [h]	mean peak disliking effect (Emin), VAS [1] [mm]	fraction non-ionized [2] [%]	enhancement of intestinal uptake [3]	high responder subjects (of six) with lower VAS scores than with standard niacin ([1]; 480 mg, fed, six high responders)	faster time to peak disliking than standard particle size niacin [1, 4] [%]	more substantial disliking effect than standard particle size niacin [1, 4] [%]
O=C(O)c1cccnc1 [standard niacin, niacin, reference compound]	3.0	−15.3	–	–	–	–	–
O=C(O)c1cccnc1 [niacin]	–	–	50	approximately five fold	–	–	–
O=C(O)c1cccnc1 [micronized niacin, niacin]	2.25	−28.7	–	–	five	25	89
